Results published in patent US20240116922A1, “IMIDAZO[1,2-A]PYRIDINE DERIVATIVES AS IRAK4 INHIBITORS AND THEIR USE IN THE TREATMENT OF DISEASE” (BIOGEN MA INC., priority 2020, published 2024).
Converted amounts (≈) assume the structure as drawn.

Assays:
[1] = Kinetic solubility assay (CLND), pH 6.8; assay type: physicochemical; details: potassium phosphate buffer pH 6.8, 2% DMSO, 24 hours at ambient temperature; for solubility kinetic at 24 h: aqueous buffer, kinetic from dmso stock
IRAK4 = IRAK4 (Homo sapiens (Human), UniProt Q9NWZ3); assay: IRAK4 MSD biochemical assay (2-hour 1 mM ATP); details: 0.1 nM IRAK4, 1 mM ATP, 2 hour at room temperature
MDR1 = MDR1 (Homo sapiens (Human), UniProt P08183); assay: in vitro; details: MDCK-MDR1
Chain of MDR1 (P08183 whole entry): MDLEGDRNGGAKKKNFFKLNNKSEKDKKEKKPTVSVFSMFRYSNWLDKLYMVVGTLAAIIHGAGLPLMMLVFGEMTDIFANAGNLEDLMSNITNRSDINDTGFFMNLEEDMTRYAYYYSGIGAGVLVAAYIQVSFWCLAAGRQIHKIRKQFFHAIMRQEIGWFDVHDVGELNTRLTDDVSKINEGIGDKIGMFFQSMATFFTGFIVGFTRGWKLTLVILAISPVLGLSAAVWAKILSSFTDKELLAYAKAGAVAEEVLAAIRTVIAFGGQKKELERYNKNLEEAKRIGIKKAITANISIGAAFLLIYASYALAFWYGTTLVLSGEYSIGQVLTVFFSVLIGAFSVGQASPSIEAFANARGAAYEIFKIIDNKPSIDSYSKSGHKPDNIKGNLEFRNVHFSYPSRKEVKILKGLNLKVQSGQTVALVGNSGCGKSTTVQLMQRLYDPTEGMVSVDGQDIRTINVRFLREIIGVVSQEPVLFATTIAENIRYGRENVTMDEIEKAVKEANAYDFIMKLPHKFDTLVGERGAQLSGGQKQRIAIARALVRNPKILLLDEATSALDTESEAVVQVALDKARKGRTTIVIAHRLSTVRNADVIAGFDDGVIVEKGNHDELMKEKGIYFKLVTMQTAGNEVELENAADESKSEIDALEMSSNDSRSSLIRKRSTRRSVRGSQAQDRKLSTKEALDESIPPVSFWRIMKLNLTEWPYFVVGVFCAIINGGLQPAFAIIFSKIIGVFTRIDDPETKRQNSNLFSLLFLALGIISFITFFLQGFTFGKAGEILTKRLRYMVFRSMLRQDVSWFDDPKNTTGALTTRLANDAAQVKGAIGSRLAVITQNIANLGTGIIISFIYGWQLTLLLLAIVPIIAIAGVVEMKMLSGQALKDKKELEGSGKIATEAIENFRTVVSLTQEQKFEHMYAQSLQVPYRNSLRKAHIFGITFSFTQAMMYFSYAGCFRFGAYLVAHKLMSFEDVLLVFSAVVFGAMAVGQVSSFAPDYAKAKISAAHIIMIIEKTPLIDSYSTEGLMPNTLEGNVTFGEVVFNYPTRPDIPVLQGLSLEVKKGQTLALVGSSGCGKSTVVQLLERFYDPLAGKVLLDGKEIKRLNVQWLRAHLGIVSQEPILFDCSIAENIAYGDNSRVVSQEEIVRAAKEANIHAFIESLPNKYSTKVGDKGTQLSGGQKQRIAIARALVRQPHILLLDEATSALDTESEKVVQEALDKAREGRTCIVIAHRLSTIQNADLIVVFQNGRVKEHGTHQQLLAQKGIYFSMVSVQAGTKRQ

Chain of IRAK4 (Q9NWZ3 whole entry): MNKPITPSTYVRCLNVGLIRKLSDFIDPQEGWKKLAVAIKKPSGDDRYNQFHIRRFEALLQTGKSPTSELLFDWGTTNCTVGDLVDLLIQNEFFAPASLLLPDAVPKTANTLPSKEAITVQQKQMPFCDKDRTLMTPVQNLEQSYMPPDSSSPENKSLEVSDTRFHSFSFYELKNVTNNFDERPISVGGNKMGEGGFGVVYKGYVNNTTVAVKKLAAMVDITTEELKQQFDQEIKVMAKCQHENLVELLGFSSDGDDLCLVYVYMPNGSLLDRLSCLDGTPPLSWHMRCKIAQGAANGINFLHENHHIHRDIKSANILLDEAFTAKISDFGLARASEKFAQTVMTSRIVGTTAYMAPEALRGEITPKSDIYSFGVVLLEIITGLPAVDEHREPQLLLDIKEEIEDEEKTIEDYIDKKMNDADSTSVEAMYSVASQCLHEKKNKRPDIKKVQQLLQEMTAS

Structure (SMILES)	solubility kinetic at 24 h [1]	also measured
CC(C)Oc1cc2nc([C@]34CC[C@](C)(C3)OC4)cn2cc1C(=O)Nc1cccn([C@@H]2C[C@@H]2F)c1=O (single isomer, unassigned) [Example 170]	–	IC50 (IRAK4): 9.4 nM
COCC12CC(c3cn4cc(C(=O)Nc5cccn([C@@H]6C[C@@H]6F)c5=O)c(OC(C)C)nc4n3)(CO1)C2 [Example 162, N-(1-((1R,2S)-2-fluorocyclopropyl)-2-oxo-1,2-dihydropyridin-3-yl)-7-isopropoxy-2-(1-(methoxymethyl)-2-oxabicyclo[2.1.1]hexan-4-yl)imidazo[1,2-a]pyrimidine-6-carboxamide]	–	efflux ratio at 120 min, 1 μM (MDR1): 38.2
CC(C)Oc1nc2nc(C34CCC(CF)(C3)OC4)cn2cc1C(=O)Nc1cccn(C2CC2)c1=O (centres unmarked) [Example 45, N-(1-cyclopropyl-2-oxo-1,2-dihydropyridin-3-yl)-2-(1-(fluoromethyl)-2-oxabicyclo[2.2.1]heptan-4-yl)-7-isopropoxyimidazo[1,2-a]pyrimidine-6-carboxamide]	6.8 µg/mL (≈ 14.1 µM)	–
CC(C)Oc1nc2nc(C34COC(C3)C4)cn2cc1C(=O)Nc1cccn([C@@H]2C[C@@H]2F)c1=O (single isomer, unassigned) [Example 88]	20.7 µg/mL (≈ 45.6 µM)	–
CC(C)Oc1cc2nc([C@]34CC[C@](C)(C3)OC4)cn2cc1C(=O)Nc1cccc(C(F)F)n1 (single isomer, unassigned) [Comparator 3A, reference compound]	0.8 µg/mL (≈ 1.75 µM)	efflux ratio at 120 min, 1 μM (MDR1): 0.7
CC(C)Oc1cc2nc(C34COC(C)(C3)C4)cn2cc1C(=O)Nc1ccnn(C2CC2)c1=O [Example 76]	50.9 µg/mL (≈ 113 µM)	efflux ratio at 120 min, 1 μM (MDR1): 3.6
CC(C)Oc1nc2nc([C@]34CC[C@](C)(C3)OC4)cn2cc1C(=O)Nc1cccn(C2CC2)c1=O (single isomer, unassigned) [Example 13]	20.3 µg/mL (≈ 43.8 µM)	–
CC12CC(c3cn4cc(C(=O)Nc5cccn([C@@H]6C[C@@H]6F)c5=O)c(OC5CC5)cc4n3)(CO1)C2 (single isomer, unassigned) [Example 174]	–	IC50 (IRAK4): 37.5 nM
Cc1cnc2c(NC(=O)c3cn4cc(C56CCC(C)(CC5)OC6)nc4cc3OC(C)C)cnn2c1 [Comparator 5B, 7-isopropoxy-2-(1-methyl-2-oxabicyclo[2.2.2]octan-4-yl)-N-(6-methylpyrazolo[1,5-a]pyrimidin-3-yl)imidazo[1,2-a]pyridine-6-carboxamide, reference compound]	5.2 µg/mL (≈ 11 µM)	efflux ratio at 120 min, 1 μM (MDR1): 1.4
CC(C)Oc1nc2nc([C@]34CC[C@](CF)(C3)OC4)cn2cc1C(=O)Nc1cccn(C2CC2)c1=O (single isomer, unassigned) [Example 47]	9 µg/mL (≈ 18.7 µM)	–
CC(C)Oc1cc2nc([C@@]34CC[C@@](C)(C3)OC4)cn2cc1C(=O)Nc1cccn([C@@H]2C[C@@H]2F)c1=O (single isomer, unassigned) [Example 168]	–	IC50 (IRAK4): 7.5 nM
CC(C)Oc1c(C(=O)Nc2cccn([C@@H]3C[C@@H]3F)c2=O)cn2cc(C34COC(C)(C3)C4)nc2c1F (single isomer, unassigned) [Example 92]	–	IC50 (IRAK4): 61 nM
CC(C)Oc1nc2nc(C34COC(C3)C4)cn2cc1C(=O)Nc1cccn([C@@H]2C[C@@H]2F)c1=O (racemic) [Example 87, (rac)-Cis-2-(2-oxabicyclo[2.1.1]hexan-4-yl)-N-(1-(2-fluorocyclopropyl)-2-oxo-1,2-dihydropyridin-3-yl)-7-isopropoxyimidazo[1,2-a]pyrimidine-6-carboxamide]	48.4 µg/mL (≈ 107 µM)	–
CC(C)Oc1nc2nc(C34CCC(C)(CC3)OC4)cn2cc1C(=O)Nc1cccc(C(F)F)n1 [Comparator 5A, N-(6-(difluoromethyl)pyridin-2-yl)-7-isopropoxy-2-(1-methyl-2-oxabicyclo[2.2.2]octan-4-yl)imidazo[1,2-a]pyrimidine-6-carboxamide, reference compound]	1.5 µg/mL (≈ 3.18 µM)	efflux ratio at 120 min, 1 μM (MDR1): 1
CC(C)Oc1nc2nc(C34COC(C)(C3)C4)cn2cc1C(=O)Nc1ccnn(C2CC2)c1=O [Example 71, N-(2-cyclopropyl-3-oxo-2,3-dihydropyridazin-4-yl)-7-isopropoxy-2-(1-methyl-2-oxabicyclo[2.1.1]hexan-4-yl)imidazo[1,2-a]pyrimidine-6-carboxamide]	8.9 µg/mL (≈ 19.8 µM)	–
CCC12CC(c3cn4cc(C(=O)Nc5cccn(C6CC6)c5=O)c(OC(C)C)nc4n3)(CO1)C2 [Example 31]	24.2 µg/mL (≈ 52.2 µM)	–
Cc1cnc2c(NC(=O)c3cn4cc([C@@]56CC[C@@](C)(C5)OC6)nc4nc3OC(C)C)cnn2c1 (single isomer, unassigned) [Comparator 4B, reference compound]	2 µg/mL (≈ 4.33 µM)	efflux ratio at 120 min, 1 μM (MDR1): 2.3
CC(C)Oc1cc2nc(C34COC(C)(C3)C4)cn2cc1C(=O)Nc1cccn([C@H]2C[C@@H]2C)c1=O [Example 140, 7-isopropoxy-2-(1-methyl-2-oxabicyclo[2.1.1]hexan-4-yl)-N-(1-((1S,2S)-2-methylcyclopropyl)-2-oxo-1,2-dihydropyridin-3-yl)imidazo[1,2-a]pyridine-6-carboxamide]	–	IC50 (IRAK4): 1.1 nM
CC[C@H](C)Oc1cc2nc(C34COC(C)(C3)C4)cn2cc1C(=O)Nc1cccn([C@@H]2C[C@@H]2F)c1=O (single isomer, unassigned) [Example 160]	–	IC50 (IRAK4): 3.1 nM
CC[C@H](C)Oc1nc2nc(C34COC(C)(C3)C4)cn2cc1C(=O)Nc1cccn([C@@H]2C[C@@H]2F)c1=O (mixture of isomers) [Example 42, 7-((S)-sec-butoxy)-N-(1-(cis-2-fluorocyclopropyl)-2-oxo-1,2-dihydropyridin-3-yl)-2-(1-methyl-2-oxabicyclo[2.1.1]hexan-4-yl)imidazo[1,2-a]pyrimidine-6-carboxamide]	72.5 µg/mL	efflux ratio at 120 min, 1 μM (MDR1): 10.8
CC[C@H](C)Oc1cc2nc(C34COC(C)(C3)C4)cn2cc1C(=O)Nc1cccn(C2CC2F)c1=O (mixture of isomers) [Example 96, 7-((S)-sec-butoxy)-N-(1-cis-(2-fluorocyclopropyl)-2-oxo-1,2-dihydropyridin-3-yl)-2-(1-methyl-2-oxabicyclo[2.1.1]hexan-4-yl)imidazo[1,2-a]pyridine-6-carboxamide]	75.7 µg/mL	efflux ratio at 120 min, 1 μM (MDR1): 10.4
CC12CC(c3cn4cc(C(=O)Nc5cccn([C@@H]6C[C@@H]6F)c5=O)c(OC5CCC5)cc4n3)(CO1)C2 (single isomer, unassigned) [Example 172]	–	IC50 (IRAK4): 27 nM
COC[C@]12C[C@](c3cn4cc(C(=O)Nc5cccn(C6CC6F)c5=O)c(OC(C)C)nc4n3)(CO1)C2 (mixture of isomers) [Example 90, (rac)-Cis-N-(1-(2-fluorocyclopropyl)-2-oxo-1,2-dihydropyridin-3-yl)-7-isopropoxy-2-(1-(methoxymethyl)-2-oxabicyclo[2.1.1]hexan-4-yl)imidazo[1,2-a]pyrimidine-6-carboxamide]	–	pH 6.8 Solubility (ug/mL) [1]: 74.8 ug/mL

Second part, led by results:

solubility kinetic at 24 h [1]	Structure (SMILES)	also measured
35.3 µg/mL (≈ 76.2 µM)	CC(C)Oc1nc2nc(C34COC(C)(C3)C4)cn2cc1C(=O)Nc1cccn([C@@H]2C[C@H]2C)c1=O (racemic) [Example 95, (rac)-trans-7-isopropoxy-2-(1-methyl-2-oxabicyclo[2.1.1]hexan-4-yl)-N-(1-(2-methylcyclopropyl)-2-oxo-1,2-dihydropyridin-3-yl)imidazo[1,2-a]pyrimidine-6-carboxamide]	–
23.9 µg/mL (≈ 52.7 µM)	CC(C)Oc1nc2nc(C34COC(C3)C4)cn2cc1C(=O)Nc1cccn([C@H]2C[C@H]2F)c1=O (single isomer, unassigned) [Example 89]	–
33.9 µg/mL (≈ 70.4 µM)	CC(C)Oc1nc2nc([C@]34CC[C@](C)(C3)OC4)cn2cc1C(=O)Nc1cccn([C@H]2C[C@@H]2F)c1=O (single isomer, unassigned) [Example 121]	–
34.4 µg/mL (≈ 67 µM)	CC(C)Oc1nc2nc(C34COC(C)(C3)C4)cn2cc1C(=O)Nc1cccn(C2C[C@]2(C)C(F)F)c1=O (stereo partly drawn) [Example 144, N-(1-((1S,2S)-2-(difluoromethyl)-2-methylcyclopropyl)-2-oxo-1,2-dihydropyridin-3-yl)-7-isopropoxy-2-(1-methyl-2-oxabicyclo[2.1.1]hexan-4-yl)imidazo[1,2-a]pyrimidine-6-carboxamide]	–
62.8 µg/mL (≈ 135 µM)	CC(C)Oc1nc2nc(C34COC(C)(C3)C4)cn2cc1C(=O)Nc1cccn([C@@H]2C[C@H]2C)c1=O (single isomer, unassigned) [Example 156]	–
37.2 µg/mL (≈ 79.7 µM)	CC(C)Oc1cc2nc(C34COC(C)(C3)C4)cn2cc1C(=O)Nc1cccn([C@@H]2C[C@H]2F)c1=O (single isomer, unassigned) [Example 154]	–
48.8 µg/mL (≈ 101 µM)	CC(C)Oc1nc2nc([C@@]34CC[C@@](C)(C3)OC4)cn2cc1C(=O)Nc1cccn([C@@H]2C[C@H]2F)c1=O (single isomer, unassigned) [Example 122]	–
73 µg/mL (≈ 152 µM)	CC(C)Oc1nc2nc([C@@]34CC[C@@](C)(C3)OC4)cn2cc1C(=O)Nc1cccn([C@H]2C[C@@H]2F)c1=O (single isomer, unassigned) [Example 123]	–
66 µg/mL (≈ 133 µM)	COCC12CC(c3cn4cc(C(=O)Nc5cccn([C@H]6C[C@H]6F)c5=O)c(OC(C)C)nc4n3)(CO1)C2 [Example 163, N-(1-((1S,2R)-2-fluorocyclopropyl)-2-oxo-1,2-dihydropyridin-3-yl)-7-isopropoxy-2-(1-(methoxymethyl)-2-oxabicyclo[2.1.1]hexan-4-yl)imidazo[1,2-a]pyrimidine-6-carboxamide]	–
59.5 µg/mL (≈ 128 µM)	CC(C)Oc1cc2nc(C34COC(C)(C3)C4)cn2cc1C(=O)Nc1cccn([C@@H]2C[C@@H]2F)c1=O (racemic) [Example 97, (rac)-Cis-N-(1-(2-fluorocyclopropyl)-2-oxo-1,2-dihydropyridin-3-yl)-7-isopropoxy-2-(1-methyl-2-oxabicyclo[2.1.1]hexan-4-yl)imidazo[1,2-a]pyridine-6-carboxamide]	–
76.7 µg/mL (≈ 159 µM)	CC(C)Oc1nc2nc([C@]34CC[C@](C)(C3)OC4)cn2cc1C(=O)Nc1cccn([C@@H]2C[C@H]2F)c1=O (single isomer, unassigned) [Example 120]	–
